Experimental data taken from ChEMBL document CHEMBL1201862, “PubChem BioAssay data set” (2004).
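Grown in 96-well plates, cells were treated for 48 hours with each compound at five concentrations. Insufficient inhibition: endpoint recorded as highest concentration tested. GI50 is the concentration that inhibits growth by half.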 Calls of active or inactive are those of the source. Cut-off read from the data, not from the text of the source: active = GI50 up to about 1.1 µM and inactive = higher.

Legend:
Assay in all cases: growth of human tumour cells (NCI), 48 h
786-0 = test system: 786-0
A498 = test system: A498
A549 = test system: A549
ACHN = test system: ACHN
BT-549 = test system: BT-549
CAKI-1 = test system: CAKI-1
CCRF-CEM = test system: CCRF-CEM
COLO 205 = test system: COLO 205
DLD-1 = test system: DLD-1
DMS-273 = test system: DMS-273
DU-145 = test system: DU-145
EKVX = test system: EKVX
HCC 2998 = test system: HCC 2998
HCT-116 = test system: HCT-116
HCT-15 = test system: HCT-15
HL-60 = test system: HL-60
HOP-18 = test system: HOP-18
HOP-62 = test system: HOP-62
HOP-92 = test system: HOP-92
HT-29 = test system: HT-29
Hs-578T = test system: Hs-578T
IGROV-1 = test system: IGROV-1
K562 = test system: K562
KM-20L2 = test system: KM-20L2
KM12 = test system: KM12
LOX IMVI = test system: LOX IMVI
LXFL 529 = test system: LXFL 529
M14 = test system: M14
M19-MEL = test system: M19-MEL
MCF7 = test system: MCF7
MDA-MB-231 = test system: MDA-MB-231
MDA-MB-435 = test system: MDA-MB-435
MDA-N = test system: MDA-N
MOLT-4 = test system: MOLT-4
Malme-3M = test system: Malme-3M
NCI-H226 = test system: NCI-H226
NCI-H23 = test system: NCI-H23
NCI-H460 = test system: NCI-H460
NCI-H522 = test system: NCI-H522
NCI/ADR-RES = test system: NCI/ADR-RES
OVCAR-3 = test system: OVCAR-3
OVCAR-4 = test system: OVCAR-4
OVCAR-5 = test system: OVCAR-5
OVCAR-8 = test system: OVCAR-8
PC-3 = test system: PC-3
RPMI-8226 = test system: RPMI-8226
RXF 393 = test system: RXF 393
RXF 631 = test system: RXF 631
SF-268 = test system: SF-268
SF-295 = test system: SF-295
SF-539 = test system: SF-539
SK-MEL-28 = test system: SK-MEL-28
SK-MEL-2 = test system: SK-MEL-2
SK-MEL-5 = test system: SK-MEL-5
SK-OV-3 = test system: SK-OV-3
SN12C = test system: SN12C
SNB-19 = test system: SNB-19
SNB-75 = test system: SNB-75
SNB-78 = test system: SNB-78
SR = test system: SR
SW-620 = test system: SW-620
T47D = test system: T47D
TK-10 = test system: TK-10
U-251 = test system: U-251
UACC-257 = test system: UACC-257
UACC-62 = test system: UACC-62
UO-31 = test system: UO-31
XF498 = test system: XF498

With `COc1cc(C2c3cc4c(cc3[C@H](OCCN(C)C)[C@@H]3COC(=O)C23)OCO4)cc(OC)c1O` (stereo partly drawn) the GI50 (786-0) was 0.0614 µM (active), the GI50 (A498) was 0.105 µM (active) and the GI50 (A549) was 0.0334 µM (active). The GI50 (ACHN) was 0.0293 µM (active), the GI50 (BT-549) was 0.499 µM (active) and the GI50 (CAKI-1) was 0.0519 µM (active). For the same compound, the GI50 (CCRF-CEM) was 0.0791 µM (active), the GI50 (COLO 205) was 1.73 µM (inactive) and the GI50 (DLD-1) was 0.805 µM (active). For the same compound, the GI50 (DMS-273) was 0.0385 µM (active), the GI50 (DU-145) was 0.134 µM (active) and the GI50 (EKVX) was 0.485 µM (active). The GI50 (HCC 2998) was 0.774 µM (active), the GI50 (HCT-116) was 0.753 µM (active) and the GI50 (HCT-15) was 0.605 µM. For the same compound, the GI50 (HL-60) was < 0.01 µM (active), the GI50 (HOP-18) was 0.27 µM (active) and the GI50 (HOP-62) was 0.053 µM (active). For the same compound, the GI50 (HOP-92) was 0.0989 µM (active), the GI50 (HT-29) was 0.621 µM (active) and the GI50 (Hs-578T) was 1.52 µM (inactive). For the same compound, the GI50 (IGROV-1) was 1.36 µM (inactive), the GI50 (K562) was 0.713 µM (active) and the GI50 (KM-20L2) was 0.364 µM (active). For the same compound, the GI50 (KM12) was 0.69 µM (active), the GI50 (LOX IMVI) was 0.0931 µM (active) and the GI50 (LXFL 529) was 2.02 µM (inactive). The GI50 (M14) was 0.244 µM (active), the GI50 (M19-MEL) was 0.373 µM (active) and the GI50 (MCF7) was 0.0484 µM (active). The GI50 (MDA-MB-231) was 2.62 µM (inactive), the GI50 (MDA-MB-435) was 2 µM (inactive) and the GI50 (MDA-N) was 2.12 µM (inactive). For the same compound, the GI50 (MOLT-4) was < 0.0123 µM (active), the GI50 (Malme-3M) was 0.275 µM (active) and the GI50 (NCI-H226) was 0.0441 µM (active). For the same compound, the GI50 (NCI-H23) was 0.155 µM (active), the GI50 (NCI-H460) was < 0.01 µM (active) and the GI50 (NCI-H522) was 0.357 µM (active). For the same compound, the GI50 (NCI/ADR-RES) was 2.67 µM (inactive), the GI50 (OVCAR-3) was 1.46 µM (inactive) and the GI50 (OVCAR-4) was 1.84 µM (inactive). For the same compound, the GI50 (OVCAR-5) was 0.738 µM (active), the GI50 (OVCAR-8) was 0.624 µM (active) and the GI50 (PC-3) was 0.805 µM (active). The GI50 (RPMI-8226) was 0.938 µM (active), the GI50 (RXF 393) was 0.299 µM (active) and the GI50 (RXF 631) was 0.0724 µM (active). For the same compound, the GI50 (SF-268) was 0.194 µM (active), the GI50 (SF-295) was 0.0681 µM (active) and the GI50 (SF-539) was 0.0671 µM (active). The GI50 (SK-MEL-28) was 1.02 µM (active), the GI50 (SK-MEL-2) was 0.706 µM (active) and the GI50 (SK-MEL-5) was 0.307 µM (active). For the same compound, the GI50 (SK-OV-3) was 0.0912 µM (active), the GI50 (SN12C) was 0.0624 µM (active) and the GI50 (SNB-19) was 0.31 µM (active). For the same compound, the GI50 (SNB-75) was 0.307 µM (active), the GI50 (SNB-78) was 3.83 µM (inactive) and the GI50 (SR) was 0.218 µM (active). The GI50 (SW-620) was 0.422 µM (active), the GI50 (T47D) was 0.369 µM (active) and the GI50 (TK-10) was 2.51 µM (inactive). For the same compound, the GI50 (U-251) was 0.0468 µM (active), the GI50 (UACC-257) was 1.37 µM (inactive) and the GI50 (UACC-62) was 0.0762 µM (active). For the same compound, the GI50 (UO-31) was 0.417 µM (active) and the GI50 (XF498) was 0.115 µM (active).
